Laboratory results: patent publication US6051596A, “Immunosuppressive compositions” (AnorMED, Inc., priority 1997, dated 2000)

Tested on: Lewis-Brown Norway F1 hybrid cardiac allografts in Lewis rat recipients
Experiment: Acute cardiac allograft rejection model in rats (procedure of Kupiec-Weglinski)
Format: in vivo
Conditions: for GRAFT SURVIVAL (days) MEAN ± SD: N=7
Experimental: The therapeutic efficacy of a pharmaceutical composition of the invention was tested according to the procedure of Kupiec-Weglinski, J. W., et al., (1988) Transplant Proc. 2:207-216 (hereinafter "Kupiec-Weglinski") to determine its in vivo potency as an acute transplantation/graft rejection modulator.
Briefly, to preform these experiments, the following protocol was employed. Male inbred adult rats (Lewis-Brown Norway F1 Hybrid rats, obtained from Harlan sprague-Dawley Inc., Indianapolis, Ind.) were used. Lewis-Brown Norway F1 Hybrid cardiac allografts were transplanted to the abdominal great vessels of Lewis recipients. The animals were administered compounds according to the following five distinct regimens.
Protocol I. Pretreatment Protocol--20 mg/kg/day of Compound A was administered orally for 7 consecutive days prior to transplantation (days -7 to -1).
Protocol II Treatment Protocol--20 mg/kg/day of Compound A was administered orally for 7 consecutive post-transplant days (days 0-6) followed by intermittent 5 day courses (days 9-13 and 16-20).
Protocol III Pretreatment and Treatment Protocol--20 mg/kg/day of Compound A was administered orally for 7 consecutive days prior to transplantation (days -7 to -1) followed by intermittent 5 day courses (days 9-13 and 16-20).
Ventricular contractions were assessed daily by palpation through the recipient flank. Rejection was defined as the day of cessation of myocardial contractions and confirmed histologically.

With CCCC1(CCC)CCC2(CCN(CCCN(C)C)C2)CC1 [Compound A, N,N-dimethyl-8,8-dipropyl-2-azaspiro[4,5]-decane-2-propanamine] the “GRAFT SURVIVAL (days) MEAN ± SD” value (Protocol I pretreatment: 20 mg/kg/day orally, days -7 to -1) was 14.7 ± 5.8 days, the “GRAFT SURVIVAL (days) MEAN ± SD” value (Protocol II treatment: 20 mg/kg/day orally, days 0-6, then days 9-13 and 16-20) was 16.7 ± 2.0 days and the “GRAFT SURVIVAL (days) MEAN ± SD” value (Protocol III pretreatment and treatment: 20 mg/kg/day orally, days -7 to -1, then days 9-13 and 16-20) was 16.0 ± 4.3 days. For the same compound, the “average graft survival time” value (single compound protocols (pretreatment, treatment or both), 20 mg/kg/day orally, untreated average 7 days) was 16 days.
